Results taken from US20210330611A1, “THERAPY FOR NEUROLOGICAL DISEASES/DISORDERS” (priority 2020, published 2021).
Like-named read-outs stand apart in the source and are kept apart here.

Columns and labels:
[1] = system: LPS-induced microglia activation; experiment: Image-based assay of LPS-induced microglia activation (HTS and dose response); format: cell-based, rat
primary rat microglia [2] = system: primary rat microglia;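 for Fibrin % cell toxicity: share of dead cells sized under 150 µm2 at 10 µM in fibrin-stimulated microglia HTS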
[3] = system: fibrin- and LPS-induced microglia activation; experiment: cells; format: cell-based, rat
primary rat microglia [4] = system: primary rat microglia; remark: listed apart in the source;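 for Fibrin % cell toxicity: share of dead cells sized under 150 µm2 at 10 µM in fibrin-stimulated microglia HTS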
[5] = system: fibrin-induced microglia activation; experiment: Image-based assay of fibrin-induced microglia activation (HTS and dose response); format: cell-based, rat; conditions: for inhibition at 10 µM: Rattus norvegicus, Microglia, read-out: Fibrin % inhibition
[6] = Rattus norvegicus, Microglia, 48 h, read-out: LPS % inhibition
[7] = Rattus norvegicus, Microglia, primary microglia HTS, LPS stimulation, compounds at 10 μM; read-out: LPS % inhibition
[8] = quadrant by fibrin and LPS inhibition, HTS at 10 μM
[9] = primary microglia HTS, fibrin stimulation, compounds at 10 μM
[10] = classification by fibrin and LPS inhibition in HTS
[11] = primary microglia HTS, fibrin stimulation, cell size >800 μm2 as marker of activation
[12] = Rattus norvegicus, Microglia, 48 h; read-out: LPS % inhibition
[13] = Rattus norvegicus, Microglia, 48 h, primary microglia HTS, LPS stimulation, activation = cell size >800 μm2; read-out: LPS % inhibition
[14] = quadrant by fibrin and LPS inhibition in HTS of 1907 compounds
[15] = primary microglia HTS, fibrin stimulation, activation = cell size >800 μm2
[16] = Rattus norvegicus, Microglia, read-out: LPS % inhibition
[17] = Rattus norvegicus, Microglia, 48 h, primary microglia HTS, LPS stimulation; increased cell size (>800 μm^2) as marker of activation; read-out: LPS % inhibition
[18] = primary microglia HTS, fibrin stimulation, increased cell size (>800 μm^2) as marker of activation

Structure (SMILES) | Quadrant (FIG. 5b) [3] | Fibrin % cell toxicity (primary rat microglia [2]; rat) | LPS % cell toxicity (primary rat microglia [4]; rat) | inhibition at 10 µM [5] | also measured
O=CCc1ccc(-c2ccccc2)cc1 | Q4 | – | – | – | LPS % inhibition ([1]; 10 µM): 7%; Fibrin % cell toxicity (primary rat microglia [2]): 0%; LPS % cell toxicity (primary rat microglia [4]): 0%; Fibrin % inhibition ([5]; 10 µM): −26%
CC(C)(O)c1ccccc1CC[C@@H](SCC1(CC(=O)O)CC1)c1cccc(/C=C/c2ccc3ccc(Cl)cc3n2)c1 [Montelukast] | Q4 | 1% | 0% | – | inhibition at 10 µM [1, 6]: 12%; Fibrin % inhibition [5]: −5%
NCCCNCCSP(=O)(O)O [Amifostine] | – | 0% | 0% | – | inhibition at 10 µM [1, 7]: 15%; Quadrant (FIG. 5b) [3, 8]: Q4; inhibition at 10 µM [5, 9]: -38%
Oc1cccc(O)c1 [Resorcinol] | – | 0% | 0% | – | inhibition at 10 µM ([1]; Rattus norvegicus, Microglia, 48 h, primary microglia HTS, LPS stimulation, cell size >800 μm2 as marker of activation; read-out: LPS % inhibition): 8%; Quadrant (FIG. 5b) [3, 10]: Q4; inhibition at 10 µM [5, 11]: -4%
CN(C)C(=O)C(CCN1CCC(O)(c2ccc(Cl)cc2)CC1)(c1ccccc1)c1ccccc1 [Loperamide] | Q1 | 1% | 2% | 12% | inhibition at 10 µM [1, 6]: 63%
CC(=O)[C@H]1CC[C@H]2[C@@H]3CCC4=CC(=O)CC[C@]4(C)[C@H]3CC[C@]12C [Progesterone] | – | 1% | 0% | – | inhibition at 10 µM [1, 12]: 36%; Quadrant (FIG. 5b) [3, 10]: Q4; inhibition at 10 µM [5, 11]: 36%
C=C[C@H]1C[N@@]2CC[C@H]1C[C@H]2[C@H](O)c1ccnc2ccc(OC)cc12 [Quinine] | – | 1% | 0% | – | LPS % inhibition [1]: −7%; Quadrant (FIG. 5b) [3, 10]: Q4; Fibrin % inhibition [5, 11]: −32%
CO[C@H]1C[C@@H]2CC[C@@H](C)[C@@](O)(O2)C(=O)C(=O)N2CCCC[C@H]2C(=O)O[C@H]([C@H](C)C[C@@H]2CC[C@@H](O)[C@H](OC)C2)CC(=O)[C@H](C)/C=C(\C)[C@@H](O)[C@@H](OC)C(=O)[C@H](C)C[C@H](C)/C=C/C=C/C=C/1C [Sirolimus] | – | 4% | 1% | – | inhibition at 10 µM [1, 7]: 81%; Quadrant (FIG. 5b) [3, 8]: Q2; inhibition at 10 µM [5, 9]: 108%
O=C(OCC(O)CO)c1ccccc1Nc1ccnc2cc(Cl)ccc12 (stereo not drawn) [Glafenine] | – | 1% | 0% | – | inhibition at 10 µM [1, 13]: 18%; Quadrant (FIG. 5b) [3, 14]: Q4; inhibition at 10 µM [5, 15]: 8%
CC(C)COCC(CN(Cc1ccccc1)c1ccccc1)N1CCCC1 (stereo not drawn) [Bepridil] | – | 1% | 0% | – | inhibition at 10 µM ([1]; Rattus norvegicus, Microglia, primary HTS, 10 μM, LPS-stimulated primary microglia; read-out: LPS % inhibition): 15%; Quadrant (FIG. 5b) ([3]; primary HTS, 10 μM): Q4; inhibition at 10 µM ([5]; primary HTS, 10 μM, fibrin-stimulated primary microglia): 1%
CC1=CC(=O)NS(=O)(=O)O1 [Acesulfame Potassium] | Q4 | 0% | 0% | -3% | inhibition at 10 µM [1, 16]: 16%
CC(=O)c1ccc(S(=O)(=O)NC(=O)NC2CCCCC2)cc1 [Acetohexamide] | – | 1% | 0% | – | inhibition at 10 µM [1, 7]: 14%; Quadrant (FIG. 5b) [3, 8]: Q4; inhibition at 10 µM [5, 9]: 12%
CC(CCc1ccccc1)NCC(O)c1ccc(O)c(C(N)=O)c1 (stereo not drawn) [Labetalol] | Q4 | 1% | 1% | 32% | inhibition at 10 µM [1, 6]: 30%
O=C1CN=C(c2ccccc2)c2cc([N+](=O)[O-])ccc2N1 [Nitrazepam] | – | 1% | 0% | – | inhibition at 10 µM [1, 17]: -4%; Quadrant (FIG. 5b) [3, 14]: Q4; inhibition at 10 µM [5, 18]: -1%
CC(C)NNC(=O)c1ccncc1 [Iproniazid] | – | 1% | 0% | – | inhibition at 10 µM [1, 13]: 10%; Quadrant (FIG. 5b) [3, 14]: Q4; inhibition at 10 µM [5, 15]: -44%
CCC1=C(C)CN(C(=O)NCCc2ccc(S(=O)(=O)NC(=O)N[C@H]3CC[C@H](C)CC3)cc2)C1=O [Glimepiride] | – | 1% | 0% | – | inhibition at 10 µM [1, 13]: 21%; Quadrant (FIG. 5b) [3, 14]: Q4; inhibition at 10 µM [5, 15]: 0%
CC(C)(C)NC(=O)[C@@H]1CN(Cc2cccnc2)CCN1C[C@@H](O)C[C@@H](Cc1ccccc1)C(=O)N[C@H]1c2ccccc2C[C@H]1O [Indinavir] | Q4 | 1% | 0% | – | inhibition at 10 µM [1, 13]: 5%; inhibition at 10 µM [5, 15]: -22%

Structure (SMILES) | Quadrant (FIG. 5b) [3] | Fibrin % cell toxicity (primary rat microglia [2]; rat) | LPS % cell toxicity (primary rat microglia [4]; rat) | inhibition at 10 µM [5] | also measured
NC[C@H]1O[C@H](O[C@H]2[C@H](O)[C@@H](O[C@H]3O[C@H](CO)[C@@H](O)[C@H](N)[C@H]3O)[C@H](N)C[C@@H]2N)[C@H](O)[C@@H](O)[C@@H]1O.O=S(=O)(O)O [Kanamycin Sulfate, Kanamycin A Sulfate] | Q4 | – | – | – | LPS % inhibition [1]: 20%; Fibrin % cell toxicity (primary rat microglia [2]): 0%; LPS % cell toxicity (primary rat microglia [4]): 1%; Fibrin % inhibition [5]: −13%
Nc1ccc(S(=O)(=O)Nc2ncccn2)cc1 [Sulfadiazine] | Q4 | 0% | 0% | -19% | inhibition at 10 µM [1, 16]: 13%
C=C[C@H]1C[N@@]2CC[C@H]1C[C@@H]2[C@@H](O)c1ccnc2ccc(OC)cc12 [Quinidine] | – | 1% | 0% | – | inhibition at 10 µM [1, 12]: 20%; Quadrant (FIG. 5b) [3, 10]: Q4; inhibition at 10 µM [5, 11]: -6%
OC[C@@H](O)[C@H]1O[C@@H]2O[C@H](C(Cl)(Cl)Cl)O[C@@H]2[C@H]1O [Chloralose] | Q4 | 1% | 0% | -14% | inhibition at 10 µM [1, 16]: 9%
[H-].[Li+] [Lithium hydride] | Q4 | – | – | – | LPS % inhibition [1]: 20%; Fibrin % cell toxicity (primary rat microglia [2]): 1%; LPS % cell toxicity (primary rat microglia [4]): 0%; Fibrin % inhibition [5]: −6%
CN(C)[C@@H]1C(O)=C(C(N)=O)C(=O)[C@@]2(O)C(O)=C3C(=O)c4c(O)cccc4[C@@](C)(O)[C@H]3C[C@@H]12 [Tetracycline] | Q4 | 0% | 0% | 7% | inhibition at 10 µM [1, 16]: 19%
Cc1c(-c2cnccn2)ssc1=S [Oltipraz] | Q4 | 1% | 0% | -2% | inhibition at 10 µM [1, 6]: -1%
OC(CNCC(O)C1CCc2cc(F)ccc2O1)C1CCc2cc(F)ccc2O1 (stereo not drawn) [Nebivolol] | – | 1% | 0% | – | inhibition at 10 µM [1, 17]: 6%; Quadrant (FIG. 5b) [3, 14]: Q4; inhibition at 10 µM [5, 18]: -10%
Cc1cccc(Nc2ccccc2C(=O)O)c1C [Mefenamic Acid] | – | 1% | 1% | – | inhibition at 10 µM [1, 17]: 3%; Quadrant (FIG. 5b) [3, 14]: Q4; inhibition at 10 µM [5, 18]: -6%
Nc1ccn([C@H]2CC[C@@H](CO)O2)c(=O)n1 [Zalcitabine] | – | 0% | 0% | – | inhibition at 10 µM ([1]; Rattus norvegicus, Microglia, primary microglia HTS, 10 μM, LPS-stimulated, cell size >800 μm^2 as marker of activation; read-out: LPS % inhibition): 11%; Quadrant (FIG. 5b) ([3]; HTS of 1907 compounds, quadrant by fibrin and LPS inhibition): Q4; inhibition at 10 µM ([5]; primary microglia HTS, 10 μM, fibrin-stimulated, cell size >800 μm^2 as marker of activation): -10%
C[N+](C)(C)CCO [Choline] | Q4 | 0% | 0% | 0% | inhibition at 10 µM [1, 16]: 12%
O=C(Nc1ccc(C(=O)O)c(O)c1)c1ccccc1 [Benzoylpas] | Q2 | 4% | 2% | 107% | inhibition at 10 µM [1, 6]: 87%
OC(c1cc(C(F)(F)F)nc2c(C(F)(F)F)cccc12)C1CCCCN1 (stereo not drawn) [Mefloquine] | – | 1% | 0% | – | inhibition at 10 µM [1, 17]: 13%; Quadrant (FIG. 5b) [3, 14]: Q4; inhibition at 10 µM [5, 18]: -18%
Clc1ccc(C(c2ccccc2Cl)C(Cl)Cl)cc1 (stereo not drawn) [Mitotane] | – | 0% | 0% | – | inhibition at 10 µM [1, 17]: -1%; Quadrant (FIG. 5b) [3, 14]: Q4; inhibition at 10 µM [5, 18]: -19%
O=S(=O)(O)NC1CCCCC1 [Cyclamic Acid] | Q4 | 0% | 0% | 4% | inhibition at 10 µM [1, 16]: 13%
CC(C)(C)NC[C@H](O)COc1ccccc1C1CCCC1 [Penbutolol] | – | 1% | 0% | – | inhibition at 10 µM [1, 12]: 17%; Quadrant (FIG. 5b) [3, 10]: Q4; inhibition at 10 µM [5, 11]: -8%
